Data as given in PMC8145535, “New Acyl Derivatives of 3-Aminofurazanes and Their Antiplasmodial Activities” (Pharmaceuticals, 2021).

What was measured:
[1] = tested on: P. falciparum K1; assay: In vitro 3H-hypoxanthine incorporation assay, erythrocytic stages, K1 strain; format: cell-based; details: Plasmodium falciparum, K1; strain resistant to chloroquine and pyrimethamine; average of four determinations; read-out: P.f. K1 IC50
Method: (§1) Chloroquine (Sigma C6628) was used as standard. […] Serial drug dilutions of 11 3-fold dilution steps covering a range from 100 to 0.002 μg/mL were prepared. The 96-well plates were incubated in a humidified atmosphere at 37 °C; 4% CO2, 3% O2, 93% N2. […] The plates were incubated for a further 24 h under the same conditions. The plates were then harvested with a Betaplate cell harvester (Wallac, Zurich, Switzerland). The red blood cells were transferred onto a glass fiber filter and washed with distilled water. The dried filters were inserted into a plastic foil with 10 mL of scintillation fluid and counted in a Betaplate liquid scintillation counter (Wallac, Zurich, Switzerland).

[2] = tested on: early gametocyte stages; set-up: method as in PMID 24060871, PMID 23234555, PMID 26787698, PMID 26749441, PMID 17521751; details: cited from earlier work
[3] = Parallel artificial membrane permeability assay (PAMPA); format: in vitro ADME; details: pH 7.4, PAMPA, pH 7.4, 200 µM in PBS, room temperature, read-out: Pe (effective permeability)
Method: The PAMPA was performed using a 96-well precoated Corning Gentest PAMPA plate at a pH of 7.4. The PAMPA plate system consists of a donor plate and an acceptor plate. When both plates are coupled, each well is divided into two chambers that are separated by a lipid–oil–lipid trilayer constructed in a porous filter. Stock solutions (10 mM) of each compound were prepared in DMSO and then further diluted to a concentration of 200 µM in phosphate-buffered saline (PBS) at pH 7.4. The compound dissolved in PBS was then added to the donor plate and pure PBS was added to the acceptor plate. Four replicates of each compound and negative control (PBS) were transferred into different wells of the donor plate. Both plates were coupled and left at room temperature for 5 h. Then, the plates were separated, and the solutions of each donor well and acceptor well were transferred to 96-well UV-Star Microplates (Greiner Bio-One). The UV absorbance of compounds in donor wells and acceptor wells were analyzed by a SpectraMax M3 UV plate reader (Molecular Devices). The concentrations were received from a calibration curve for each substance. The plates were analyzed at a wavelength where the R^2 value of the calibration curve was higher than 0.99 [34]. The effective permeability (Pe) was calculated as shown in the following Equations (1)–(3):(1) Penm/s=10^7∗−ln1−cAt/cequ/S∗1/VD+1/VA∗ t where:
cequ—equilibrium concentration. (2) cequ=cDt ∗VD+cAt ∗VA/VD+VA where:
Recovery of compounds from donor and acceptor wells (mass retention) was calculated as shown in the equation below. Data were only accepted when recovery exceeded 70%.

[4] = tested on: P. berghei liver schizonts; set-up: method as in PMID 27275010, PMID 16242190; details: P. berghei assay; cited from earlier work
[5] = tested on: P. falciparum NF54; assay: In vitro 3H-hypoxanthine incorporation assay, erythrocytic stages, NF54 strain; format: cell-based, Plasmodium falciparum; details: Plasmodium falciparum, NF54, chloroquine-sensitive strain; average of four determinations; read-out: P.f. NF54 IC50
Method: as §1

[6] = tested on: multiresistant strain K1 of Plasmodium falciparum; set-up: method as in PMID 27467575; details: MMV Malaria Box; cited from earlier work
[7] = tested on: Na+-efflux pump PfATP4; set-up: method as in PMID 25145582, PMID 33023071, PMID 19956997, PMID 25715757; details: possible target; cited from earlier work
[8] = in vitro; details: rat
Method: Serial drug dilutions of 11 3-fold dilution steps covering a range from 100 to 0.002 μg/mL were prepared. After 70 h of incubation, the plates were inspected under an inverted microscope to assure the growth of the controls and sterile conditions. […] Then, the plates were read with a Spectramax Gemini XS microplate fluorometer (Molecular Devices Cooperation, Sunnyvale, CA, USA) using an excitation wavelength of 536 nm and an emission wavelength of 588 nm. […] Podophyllotoxin (Sigma P4405) was used as control.

[9] = tested on: multiresistant strain Dd2 of Plasmodium falciparum; set-up: method as in PMID 27467575; details: MMV Malaria Box; cited from earlier work

SMILES: CCOc1ccc(-c2nonc2NC(=O)c2cccc(C)c2)cc1OCC [Compound 1, N-(4-(3,4-Diethoxyphenyl)-1,2,5-oxadiazol-3-yl)-3-methylbenzamide]
- IC50 [1]: 11 nM
- activity against early gametocyte stages [2]: working against early gametocyte stages
- Papp at 5 h, 200 µM [3]: 2.77 ×10⁻⁶ cm/s
- activity against liver schizonts [4]: activity against liver schizonts
- IC50 [5]: 11 nM
- antiplasmodial activity against multiresistant strain K1 [6]: shows antiplasmodial activity
- inhibition of PfATP4 [7]: likely to inhibit
- IC50 at 72 h [8]: 159000 nM
- antiplasmodial activity against multiresistant strain Dd2 [9]: shows antiplasmodial activity
